Here are results for 15 compounds from patent US4696925A, “Cholecystokinin antagonist compounds” (Merck & Co., Inc., priority 1985, dated 1987).

This assay has as its target T1, Pancreatic CCK (Rattus norvegicus, UniProt P30551).
T1 construct: from tissue; host or cells: pancreas (rat, inferred from the cited method)
T1 sequence (P30551 1-444): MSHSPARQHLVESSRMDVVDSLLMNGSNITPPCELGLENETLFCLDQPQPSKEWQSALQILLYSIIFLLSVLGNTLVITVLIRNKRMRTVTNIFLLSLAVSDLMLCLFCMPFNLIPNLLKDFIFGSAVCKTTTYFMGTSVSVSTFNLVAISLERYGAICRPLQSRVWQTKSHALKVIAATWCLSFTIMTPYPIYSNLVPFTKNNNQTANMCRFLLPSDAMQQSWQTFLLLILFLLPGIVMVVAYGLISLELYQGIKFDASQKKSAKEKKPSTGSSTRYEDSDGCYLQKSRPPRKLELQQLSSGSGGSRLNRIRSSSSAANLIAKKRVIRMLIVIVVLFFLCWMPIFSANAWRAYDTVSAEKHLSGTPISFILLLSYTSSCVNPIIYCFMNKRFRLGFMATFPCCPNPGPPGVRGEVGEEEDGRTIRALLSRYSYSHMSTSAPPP
The assay is described as follows: Pancreatic CCK inhibition (assay of European Patent Application No. 0,116,150). The format is binding. The source says: The following formula and tabulation further identify the above listed compounds. Pancreatic CCK inhibition data is also provided; the assay used is that disclosed in said European Patent Application No. 0,116,150.
The following table contains information Identifying other compounds of the present invention and pancrease CCK inhibition data (European Patent Application Assay).

The mark [1] stands for this setting: pancreas CCK inhibition, European Patent Application assay, leucine analogs.
Where [2] appears, read: pancreatic CCK inhibition, assay of EP 0,116,150.

For the compound `O=C1NC(CC2(O)c3ccccc3N3C(=O)C(C4CCCCC4)NC32)c2nc3ccccc3c(=O)n2-c2ccccc21` (stereo not drawn) [Compound 068], under setting [1], the IC50 was found to be 0.6 µM.

As for `CC(CC1NC2N(C1=O)c1ccccc1C2(O)CC1NC(=O)c2ccccc2-n2c1nc1ccccc1c2=O)C(F)(F)F` (stereo not drawn) [Compound 328], the IC50 under setting [1] was 1 µM.

On to `O=C1NC(CC2(O)c3ccccc3N3C(=O)C(c4ccccc4)NC32)c2nc3ccccc3c(=O)n2-c2ccccc21` (stereo not drawn) [Compound 500], for which, under setting [1], the IC50 turned out to be 20 µM. Still for that read-out and setting: the figure for `C=C(C)CC1NC2N(C1=O)c1ccccc1C2(O)CC1NC(=O)c2ccccc2-n2c1nc1ccccc1c2=O` (stereo not drawn) [Compound 538] is 3.3 µM; for `CCCC1NC2N(C1=O)c1ccccc1C2(O)CC1NC(=O)c2ccccc2-n2c1nc1ccccc1c2=O` (stereo not drawn) [Compound 539] it is 11.9 µM; for `C=CCC1NC2N(C1=O)c1ccccc1C2(O)CC1NC(=O)c2ccccc2-n2c1nc1ccccc1c2=O` (stereo not drawn) [Compound 540] it is 7.6 µM. On the same count and under the same terms, the figure for `CCC(C)C1NC2N(C1=O)c1ccccc1C2(O)CC1NC(=O)c2ccccc2-n2c1nc1ccccc1c2=O` (stereo not drawn) [Compound 654] is 5.9 µM; for `CSCCC1NC2N(C1=O)c1ccccc1C2(O)CC1NC(=O)c2ccccc2-n2c1nc1ccccc1c2=O` (stereo not drawn) [Compound 655] it is 4.1 µM; for `CCCCC1NC2N(C1=O)c1ccccc1C2(O)CC1NC(=O)c2ccccc2-n2c1nc1ccccc1c2=O` (stereo not drawn) [Compound 656] it is 2.5 µM. Same read-out and setting: the figure for `CCSCCC1NC2N(C1=O)c1ccccc1C2(O)CC1NC(=O)c2ccccc2-n2c1nc1ccccc1c2=O` (stereo not drawn) [Compound 721] is 1.5 µM.

For `O=C1NC(Cc2c[nH]c3ncccc23)c2nc3ccccc3c(=O)n2-c2ccccc21` (stereo not drawn) [Compound 841], the midpoint of inhibition under setting [2], the IC50, lay at 29.9 µM. The same measure, in the same setting: the figure for `CC(C)C[C@@H]1NC2N(C1=O)c1ccccc1C2(O)C[C@@H]1NC(=O)c2ccc(F)cc2-n2c1nc1ccccc1c2=O` (stereo partly drawn) [Compound 845] is 1.45 µM; for `O=C1c2ccccc2-n2c(nc3ccccc3c2=O)C2CC3(O)c4cc(F)ccc4NC3N12` (stereo not drawn) [Compound 856] it is 30 µM. Same read-out and setting: as for `O=C1c2cc(F)ccc2-n2c(nc3ccc(F)cc3c2=O)C2CC3(O)c4cc(F)ccc4NC3N12` (stereo not drawn) [Compound 857], the figure is 2.52 µM.

Under setting [1], `O=C1NC(CC2(O)c3ccccc3N3C(=O)C(C4CCCC4)NC32)c2nc3ccccc3c(=O)n2-c2ccccc21` (stereo not drawn) [Compound 931] gave an IC50 of 2.2 µM.
